According to US5059589A, “Glaucoma treatment” (Abbott Laboratories, priority 1990, dated 1991):

Tests used:
[1] = test system: intraocular pressure in rabbits; assay: Dose response study of topically administered Compound V and timolol on intraocular pressure of rabbits; type: in vivo, rabbit; settings: topical
Method: (§1) The antiglaucoma activity of the compounds was tested by measuring the effect on intraocular pressure in rabbits as described by Tinjum, A.M., Acta Ophthalmologica, 50, 677 (1972). Male albino, New Zealand rabbits were placed in restraining devices and the intraocular pressure was measured with an applamatic tonometer. […]

[2] = test system: intraocular pressure in rabbits; assay: Effects of topically administered renin inhibiting compounds on intraocular pressure of rabbits; type: in vivo, Male albino, New Zealand rabbits; settings: topical 0.1 ml, 0.5% active substance
Method: The antiglaucoma activity of the compounds was tested by measuring the effect on intraocular pressure in rabbits as described by Tinjum, A.M., Acta Ophthalmologica, 50, 677 (1972). Male albino, New Zealand rabbits were placed in restraining devices and the intraocular pressure was measured with an applamatic tonometer. Exactly 0.1 ml of an isotonic saline solution containing a test compound was instilled into the conjuctival sac and the intraocular pressure was measured at 5, 15, 30, 60, 90, 120 and 180 minutes afterwards.

[3] = test system: intraocular pressure in rabbits; assay: Topically administered Compound V alone and in combination with timolol on intraocular pressure of rabbits; type: in vivo, rabbit; settings: topical, alone
Method: as §1

[4] = 0.05%, 15 minutes after administration
[5] = 0.05%, 30 minutes after administration
[6] = 0.05%, 60 minutes after administration
[7] = 0.03%, 5 minutes after administration
[8] = 0.03%, 15 minutes after administration
[9] = 0.03%, 30 minutes after administration
[10] = 0.03%, 60 minutes after administration
[11] = 0.03%, 90 minutes after administration
[12] = 0.03%, 120 minutes after administration
[13] = 0.03%, 150 minutes after administration

Compound: CC(C)(C)NC[C@H](O)COc1nsnc1N1CCOCC1 [Timolol, reference compound]
- Mean Intraocular Pressure in mmHg ([1]; 0.02%, 30 minutes after administration): 13.9 mmHg
- Mean Intraocular Pressure in mmHg ([1]; 0.02%, 120 minutes after administration): 22.4 mmHg
- Mean Intraocular Pressure in mmHg ([1]; 0.02%, 150 minutes after administration): 19.9 mmHg
- Mean Intraocular Pressure in mmHg [1, 4]: 12.8 mmHg
- Mean Intraocular Pressure in mmHg [1, 5]: 12.8 mmHg
- Mean Intraocular Pressure in mmHg [1, 6]: 12.3 mmHg
- Mean Intraocular Pressure in mmHg ([1]; 0.05%, 150 minutes after administration): 20.3 mmHg
- Mean Intraocular Pressure in mmHg ([1]; 0.2%, 5 minutes after administration): 12.1 mmHg
- Mean Intraocular Pressure in mmHg ([1]; 0.2%, 15 minutes after administration): 12.5 mmHg
- Mean Intraocular Pressure in mmHg ([1]; 0.2%, 60 minutes after administration): 12.8 mmHg
- Mean Intraocular Pressure in mmHg ([1]; 0.5%, 5 minutes after administration): 12.8 mmHg
- Mean Intraocular Pressure in mmHg ([1]; 0.5%, 15 minutes after administration): 12.8 mmHg
- Mean Intraocular Pressure in mmHg ([1]; 0.5%, 30 minutes after administration): 11.0 mmHg
- Mean Intraocular Pressure in mmHg ([1]; 0.5%, 60 minutes after administration): 10.9 mmHg
- Mean Intraocular Pressure in mmHg ([2]; 5 minutes after administration): 12.1 mmHg
- Mean Intraocular Pressure in mmHg ([2]; 15 minutes after administration): 9.9 mmHg
- Mean Intraocular Pressure in mmHg ([2]; 30 minutes after administration): 11.9 mmHg
- Mean Intraocular Pressure in mmHg ([2]; 60 minutes after administration): 10.6 mmHg
- Mean Intraocular Pressure in mmHg ([2]; 90 minutes after administration): 12.4 mmHg
- Mean Intraocular Pressure in mmHg ([2]; 120 minutes after administration): 13.3 mmHg
- Mean Intraocular Pressure in mmHg ([3]; 0.05%, 5 minutes after administration): 10.2 mmHg
- Mean Intraocular Pressure in mmHg [3, 4]: 11.0 mmHg
- Mean Intraocular Pressure in mmHg [3, 5]: 10.1 mmHg
- Mean Intraocular Pressure in mmHg [3, 6]: 9.9 mmHg
- Mean Intraocular Pressure in mmHg ([3]; 0.05%, 90 minutes after administration): 13.9 mmHg

Compound: COc1ccc(CC(NC(=O)CC(C)(C)N)C(=O)NC(Cc2cnc[nH]2)C(=O)N[C@@H](CC2CCCCC2)[C@@H](O)[C@@H](O)CC(C)C)cc1 (stereo partly drawn) [Compound V, H-((beta,beta-dimethyl)-beta Ala)-(4-OCH3)Phe-His amide of 2(S)-amino 1-cyclohexyl 3(R),4(S) dihydroxy-6-methylheptane]
- Mean Intraocular Pressure in mmHg ([1]; 0.01%, 5 minutes after administration): 17.7 mmHg
- Mean Intraocular Pressure in mmHg ([1]; 0.01%, 15 minutes after administration): 16.3 mmHg
- Mean Intraocular Pressure in mmHg ([1]; 0.01%, 30 minutes after administration): 13.7 mmHg
- Mean Intraocular Pressure in mmHg ([1]; 0.01%, 60 minutes after administration): 16.9 mmHg
- Mean Intraocular Pressure in mmHg ([1]; 0.01%, 90 minutes after administration): 15.4 mmHg
- Mean Intraocular Pressure in mmHg ([1]; 0.01%, 120 minutes after administration): 18.2 mmHg
- Mean Intraocular Pressure in mmHg ([1]; 0.01%, 150 minutes after administration): 20.3 mmHg
- Mean Intraocular Pressure in mmHg ([1]; 0.01%, CONTROL): 19.2 mmHg
- Mean Intraocular Pressure in mmHg [1, 7]: 13.8 mmHg
- Mean Intraocular Pressure in mmHg [1, 8]: 13.3 mmHg
- Mean Intraocular Pressure in mmHg [1, 9]: 12.8 mmHg
- Mean Intraocular Pressure in mmHg [1, 10]: 13.8 mmHg
- Mean Intraocular Pressure in mmHg [1, 11]: 13.8 mmHg
- Mean Intraocular Pressure in mmHg [1, 12]: 15.2 mmHg
- Mean Intraocular Pressure in mmHg [1, 13]: 16.8 mmHg
- Mean Intraocular Pressure in mmHg ([1]; 0.03%, CONTROL): 19.0 mmHg
- Mean Intraocular Pressure in mmHg ([1]; 0.1%, 5 minutes after administration): 14.1 mmHg
- Mean Intraocular Pressure in mmHg ([1]; 0.1%, 15 minutes after administration): 13.1 mmHg
- Mean Intraocular Pressure in mmHg ([1]; 0.1%, 30 minutes after administration): 11.9 mmHg
- Mean Intraocular Pressure in mmHg ([1]; 0.1%, 60 minutes after administration): 11.3 mmHg
- Mean Intraocular Pressure in mmHg ([1]; 0.1%, 90 minutes after administration): 11.5 mmHg
- Mean Intraocular Pressure in mmHg ([1]; 0.1%, 120 minutes after administration): 17.5 mmHg
- Mean Intraocular Pressure in mmHg ([1]; 0.1%, 150 minutes after administration): 19.0 mmHg
- Mean Intraocular Pressure in mmHg ([1]; 0.1%, CONTROL): 18.7 mmHg
- Mean Intraocular Pressure in mmHg ([1]; 0.3%, 5 minutes after administration): 13.3 mmHg
- Mean Intraocular Pressure in mmHg ([1]; 0.3%, 15 minutes after administration): 12.0 mmHg
- Mean Intraocular Pressure in mmHg ([1]; 0.3%, 30 minutes after administration): 10.9 mmHg
- Mean Intraocular Pressure in mmHg ([1]; 0.3%, 60 minutes after administration): 12.2 mmHg
- Mean Intraocular Pressure in mmHg ([1]; 0.3%, 90 minutes after administration): 12.4 mmHg
- Mean Intraocular Pressure in mmHg ([1]; 0.3%, 120 minutes after administration): 16.0 mmHg
- Mean Intraocular Pressure in mmHg ([1]; 0.3%, 150 minutes after administration): 18.8 mmHg
- Mean Intraocular Pressure in mmHg ([1]; 0.3%, CONTROL): 21.2 mmHg
- Mean Intraocular Pressure in mmHg [3, 7]: 10.4 mmHg
- Mean Intraocular Pressure in mmHg [3, 8]: 10.3 mmHg
- Mean Intraocular Pressure in mmHg [3, 9]: 10.1 mmHg
- Mean Intraocular Pressure in mmHg [3, 10]: 10.2 mmHg
- Mean Intraocular Pressure in mmHg [3, 11]: 10.4 mmHg
- Mean Intraocular Pressure in mmHg [3, 12]: 14.5 mmHg
- Mean Intraocular Pressure in mmHg [3, 13]: 17.0 mmHg
- Mean Intraocular Pressure in mmHg ([3]; 0.03%, CONTROL): 17.5 mmHg
